Experimental findings from patent US8993752B2, “Neprilysin inhibitors” (Theravance Biopharma R&D IP, LLC, priority 2011, dated 2015) are described below.

In this test the target is T1, human NEP (Homo sapiens, UniProt P08473).
T1 construct: purchased R&D Systems, Minneapolis, Minn; 1182-ZN
Briefly: In vitro enzyme inhibition assay at human NEP (fluorogenic peptide substrate). The settings on record: recombinant human NEP; substrate Mca-D-Arg-Arg-Leu-Dap-(Dnp)-OH 10 μM; 37° C.; values given as ranges; read-out: pKi values at human NEP (converted). The format is biochemical. In a few lines:
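Recombinant human NEP pre-incubated 30 min at 37 °C with compound (10 μM to 20 pM), then 10 μM Mca-D-Arg-Arg-Leu-Dap-(Dnp)-OH in 50 mM HEPES pH 7.5, 100 mM NaCl, 0.01% Tween-20, 10 μM ZnSO4. Stopped after 20 min with acetic acid, fluorescence read at 320/405 nm; Ki from nonlinear fit, reported as pKi.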

T1 sequence (P08473 whole entry): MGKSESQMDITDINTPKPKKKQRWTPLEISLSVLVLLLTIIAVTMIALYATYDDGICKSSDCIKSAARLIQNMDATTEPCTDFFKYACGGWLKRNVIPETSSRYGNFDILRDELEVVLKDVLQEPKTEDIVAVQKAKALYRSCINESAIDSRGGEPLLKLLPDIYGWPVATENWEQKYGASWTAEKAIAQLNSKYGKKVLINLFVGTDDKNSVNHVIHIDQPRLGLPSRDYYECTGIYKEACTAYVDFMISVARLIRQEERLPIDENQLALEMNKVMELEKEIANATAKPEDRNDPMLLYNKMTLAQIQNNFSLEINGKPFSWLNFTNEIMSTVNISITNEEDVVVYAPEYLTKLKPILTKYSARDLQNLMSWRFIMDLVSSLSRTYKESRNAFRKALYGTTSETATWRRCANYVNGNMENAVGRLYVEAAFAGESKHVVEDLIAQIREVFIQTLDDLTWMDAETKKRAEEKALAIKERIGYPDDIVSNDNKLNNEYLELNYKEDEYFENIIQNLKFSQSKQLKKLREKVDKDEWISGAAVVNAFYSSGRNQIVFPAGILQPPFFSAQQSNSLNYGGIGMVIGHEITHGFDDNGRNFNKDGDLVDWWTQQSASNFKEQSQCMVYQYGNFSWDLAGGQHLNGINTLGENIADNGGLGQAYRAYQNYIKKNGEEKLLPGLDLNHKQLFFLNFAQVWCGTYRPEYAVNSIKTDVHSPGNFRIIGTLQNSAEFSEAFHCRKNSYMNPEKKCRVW

For `COc1ccc(Cn2nc(C(=O)N[C@H](Cc3ccccc3C(F)(F)F)[C@@H](O)C(=O)O)cc2C(=O)O)cc1` [Example 5, 5-[(1R,2R)-2-Carboxy-2-hydroxy-1-(2-trifluoromethylbenzyl)-ethylcarbamoyl]-2-(4-methoxybenzyl)-2H-pyrazole-3-carboxylic Acid], the Ki was 1.26 to 10 nM. The figure for `CCCc1cc(C(=O)N[C@H](Cc2ccccc2)[C@@H](O)C(=O)O)nn1Cc1ccccc1` [Example 8-19, (2R,3R)-3-[(1-Benzyl-5-propyl-1H-pyrazole-3-carbonyl)-amino]-2-hydroxy-4-phenyl-butyric acid] is 12.6 to 100 nM; for `COc1cccc(Cn2nc(C(=O)N[C@H](Cc3ccccc3)[C@@H](O)C(=O)O)cc2C(=O)O)c1` [Example 8-5, 5-((1R,2R)-1-Benzyl-2-carboxy-2-hydroxy-ethylcarbamoyl)-2-(3-methoxy-benzyl)-2H-pyrazole-3-carboxylic acid] it is 1.26 to 10 nM. Under `O=C(N[C@H](Cc1ccccc1Cl)[C@@H](O)C(=O)O)c1cc(C(=O)O)n(Cc2c(F)cc(Cl)cc2F)n1` [Example 2-2, 5-[(1R,2R)-2-Carboxy-1-(2-chloro-benzyl)-2-hydroxy-ethylcarbamoyl]-2-(4-chloro-2,6-difluoro-benzyl)-2H-pyrazole-3-carboxylic acid] stands 1.26 to 10 nM; under `Cn1nc(C(=O)N[C@H](Cc2ccccc2Cl)[C@@H](O)C(=O)O)cc1-c1ccccc1` [Example 2-58, (2R,3R)-4-(2-Chloro-phenyl)-2-hydroxy-3-[(1-methyl-5-phenyl-1H-pyrazole-3-carbonyl)-amino]-butyric acid], 12.6 to 100 nM. The figure for `O=C(N[C@H](Cc1ccccc1C(F)(F)F)[C@@H](O)C(=O)O)c1cc(C(=O)O)n(Cc2ccc(F)cc2)n1` [Example 6-1, 5-[(1R,2R)-2-Carboxy-2-hydroxy-1-(2-trifluoromethyl-benzyl)-ethylcarbamoyl]-2-(4-fluoro-benzyl)-2H-pyrazole-3-carboxylic acid] is 1.26 to 10 nM; for `O=C(N[C@H](Cc1ccccc1Cl)[C@@H](O)C(=O)O)c1cc(NC(=O)c2ccccc2Cl)[nH]n1` [Example 2-57, (2R,3R)-3-{[5-(2-Chloro-benzoylamino)-1H-pyrazole-3-carbonyl]-amino}-4-(2-chloro-phenyl)-2-hydroxy-butyric acid] it is 12.6 to 100 nM; for `O=C(O)C[C@@H](Cc1ccccc1Cl)NC(=O)c1cc(C(=O)O)n(Cc2ccc(Cl)cc2)n1` [Example 11-3, 5-[(R)-2-Carboxy-1-(2-chloro-benzyl)-ethylcarbamoyl]-2-(4-chloro-benzyl)-2H-pyrazole-3-carboxylic acid] it is 12.6 to 100 nM. In the case of `O=C(N[C@H](Cc1ccccc1)[C@@H](O)C(=O)O)c1cc(C(=O)O)n(Cc2ccc(Cl)cc2)n1` [Example 8-6, 5-((1R,2R)-1-Benzyl-2-carboxy-2-hydroxy-ethylcarbamoyl)-2-(4-chloro-benzyl)-2H-pyrazole-3-carboxylic acid], the Ki was 1.26 to 10 nM. With `O=C(N[C@H](Cc1ccccc1Cl)[C@@H](O)C(=O)O)c1cc(C(=O)N2CCOCC2)[nH]n1` [Example 2-55, (2R,3R)-4-(2-Chloro-phenyl)-2-hydroxy-3-{[5-(morpholine-4-carbonyl)-1H-pyrazole-3-carbonyl]-amino}-butyric acid], the Ki was 12.6 to 100 nM. The figure for `O=C(O)C[C@@H](Cc1ccccc1Cl)NC(=O)c1cc(C(=O)O)[nH]n1` [Example 11-7, 5-[(R)-1-Carboxymethyl-2-(2-chloro-phenyl)-ethylcarbamoyl]-2H-pyrazole-3-carboxylic acid] is 12.6 to 100 nM; for `O=C(N[C@H](Cc1ccccc1)[C@@H](O)C(=O)O)c1cc(C(=O)O)n(Cc2cccnc2)n1` [Example 8-15, 5-((1R,2R)-1-Benzyl-2-carboxy-2-hydroxy-ethylcarbamoyl)-2-pyridin-3-ylmethyl-2H-pyrazole-3-carboxylic acid] it is 12.6 to 100 nM. Take `O=C(N[C@H](Cc1ccccc1Cl)[C@@H](O)C(=O)O)c1cc(-c2ccco2)[nH]n1` [Example 2-52, (2R,3R)-4-(2-Chloro-phenyl)-3-[(5-furan-2-yl-1H-pyrazole-3-carbonyl)-amino]-2-hydroxy-butyric acid]: the Ki was 12.6 to 100 nM. The figure for `O=C(N[C@H](Cc1ccccc1C(F)(F)F)[C@@H](O)C(=O)O)c1cc(C(=O)N2CC[C@H](C(=O)O)C2)[nH]n1` [Example 6-11, (S)-1-{5-[(1R,2R)-2-Carboxy-2-hydroxy-1-(2-trifluoromethyl-benzyl)-ethylcarbamoyl]-2H-pyrazole-3-carbonyl}-pyrrolidine-3-carboxylic acid] is 1.26 to 10 nM; for `O=C(N[C@H](Cc1ccccc1Cl)[C@@H](O)C(=O)O)c1cc(-c2ccccc2Cl)[nH]n1` [Example 2-48, (2R,3R)-4-(2-Chloro-phenyl)-3-{[5-(2-chloro-phenyl)-1H-pyrazole-3-carbonyl]-amino}-2-hydroxy-butyric acid] it is 1.26 to 10 nM; for `O=C(N[C@H](Cc1ccccc1Cl)[C@@H](O)C(=O)O)c1cc(C(=O)O)n(Cc2ccc(Cl)c(OC(F)(F)F)c2)n1` [Example 2-13, 5-[(1R,2R)-2-Carboxy-1-(2-chloro-benzyl)-2-hydroxy-ethylcarbamoyl]-2-(4-chloro-3-trifluoromethoxy-benzyl)-2H-pyrazole-3-carboxylic acid] it is 12.6 to 100 nM. Under `O=C(N[C@H](Cc1ccccc1Cl)[C@@H](O)C(=O)O)c1cc(C(=O)O)n(Cc2ccc(OC(F)(F)F)c(F)c2)n1` [Example 2-39, 5-[(1R,2R)-2-Carboxy-1-(2-chloro-benzyl)-2-hydroxy-ethylcarbamoyl]-2-(3-fluoro-4-trifluoromethoxy-benzyl)-2H-pyrazole-3-carboxylic acid] stands at most 1 nM.
